From US8722849B2, “Polypeptides” (Novo Nordisk A/S, priority 2011, dated 2014)
In brackets after ≈: the same amount, converted by molar mass. Read-outs that look alike come from different tables or passages of the source. Starred links: 1 amine or outer side, 2 acyl side, 3 side chain; linkers in the order of their positions; H or OH if unused. Positions of bridges follow the written chain, without caps; N, C: chain ends. Residues, ends and D or L forms follow the SMILES beside them. *: point of attachment. C20 diacid = O=C(O)CCCCCCCCCCCCCCCCCCC(=O)*; γGlu = O=C(O)[C@H](CCC(=O)[*:2])N[*:1]

Columns and labels:
[1] = Assay (IV) determination of solubility; assay type: physicochemical
Summary of the method: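 Solubility was profiled across pH 3.0–8.0 after 18 hours at room temperature: a ~500 nmol/ml aqueous polypeptide solution was diluted 1:1 into 100 mM glycylglycine or bistrispropane buffers. After centrifugation, HPLC gave the dissolved concentration.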

[2] = biological target: T1, human calcitonin receptor (Homo sapiens, UniProt P30988); assay: Assay (II)a functional CRE-luciferase assay, human calcitonin receptor; assay type: cell-based; settings: Table 7; human calcitonin (CTa) receptor
T1 construct: expressed in transfected cells; host or cells: BHK570
T1 sequence (P30988 25-474): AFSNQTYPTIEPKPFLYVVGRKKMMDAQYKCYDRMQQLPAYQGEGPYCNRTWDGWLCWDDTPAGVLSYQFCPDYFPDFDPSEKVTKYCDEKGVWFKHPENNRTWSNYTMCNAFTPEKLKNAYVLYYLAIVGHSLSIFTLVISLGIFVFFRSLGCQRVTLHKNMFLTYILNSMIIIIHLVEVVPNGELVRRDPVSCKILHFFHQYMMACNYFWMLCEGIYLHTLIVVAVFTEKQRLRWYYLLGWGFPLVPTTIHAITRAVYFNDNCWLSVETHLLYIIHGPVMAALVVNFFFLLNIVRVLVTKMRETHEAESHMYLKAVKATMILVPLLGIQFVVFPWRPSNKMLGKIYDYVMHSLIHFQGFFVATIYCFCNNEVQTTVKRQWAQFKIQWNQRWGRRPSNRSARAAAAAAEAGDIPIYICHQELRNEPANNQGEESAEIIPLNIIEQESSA

[3] = biological target: T2, human amylin receptor (amylin 3(a) receptor: human calcitonin receptor + RAMP-3) (Homo sapiens, UniProt O60896+P30988); assay: Assay (II)a functional CRE-luciferase assay, human amylin receptor; assay type: cell-based; settings: Table 2; BHK amylin 3(a)-receptor/CRE-luc cells
T2 construct: expressed in transfected cells; host or cells: BHK570
T2 sequence (P30988 25-474): T1 sequence (P30988 25-474)
T2 sequence (O60896 24-148 partner): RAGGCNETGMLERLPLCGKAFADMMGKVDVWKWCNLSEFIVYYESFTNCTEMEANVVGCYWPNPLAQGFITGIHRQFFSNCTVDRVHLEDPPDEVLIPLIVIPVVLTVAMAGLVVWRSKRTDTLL

[4] = Assay (III) ThT fibrillation assay for physical stability; assay type: physicochemical
Summary of the method: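 Freshly prepared formulations, pH-adjusted, with 1 μM ThT; four or eight replicates incubated at 37 °C under 960 rpm orbital shaking. Fluorescence (ex 444/em 485 nm) read every 20 min; […]. Peptide concentration measured by RP-HPLC before and after the run.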

[5] = bistrispropane buffer, pH 6, pH 6.0, read-out: Solubility pH 6.0
[6] = bistrispropane buffer, pH 6.5, pH 6.5, read-out: Solubility pH 6.5
[7] = bistrispropane buffer, pH 7, pH 7.0, 18 hours at room temperature, Table 3, read-out: Solubility pH 7.0
[8] = bistrispropane buffer, pH 7, pH 7.0, read-out: Solubility pH 7.0
[9] = bistrispropane buffer, pH 7.5, pH 7.5, read-out: Solubility pH 7.5
[10] = bistrispropane buffer, pH 8, pH 8.0, read-out: Solubility pH 8.0
[11] = glycylglycine buffer, pH 3, pH 3.0, read-out: Solubility pH 3.0
[12] = glycylglycine buffer, pH 4, pH 4.0, 18 hours at room temperature, Table 2, read-out: Solubility pH 4.0
[13] = glycylglycine buffer, pH 4, pH 4.0, read-out: Solubility pH 4.0
[14] = glycylglycine buffer, pH 5, pH 5.0, read-out: Solubility pH 5.0

solubility at 18 h [1, 5] [µM] | solubility at 18 h [1, 6] [µM] | solubility at 18 h [1, 7] [µM] | solubility at 18 h ([1]; bistrispropane buffer, pH 7, pH 7.0, Table 8, read-out: Solubility pH 7.0) [µM] | solubility at 18 h [1, 8] [µM] | solubility at 18 h [1, 9] [µM] | solubility at 18 h [1, 10] [µM] | solubility at 18 h [1, 11] [µM] | solubility at 18 h [1, 12] [µM] | solubility at 18 h [1, 13] [µM] | solubility at 18 h [1, 14] [µM] | EC50 [2] [nM] | EC50 [3] [nM] | ThT pH 4.0 lag time ([4]; Table 8) [h] | ThT pH 4.0 lag time ([4]; ThT fibrillation assay) [h] | ThT pH 4.0 lag time (h) ([4]; ThT fibrillation assay) | Structure (SMILES)
> 200 | 193 (≈ 840 µg/mL) | > 200 | > 200 | > 200 | > 200 | > 200 | > 200 | > 200 | > 200 | > 200 | 0.286 | 0.365 | 28 | 28 | 28 | CC[C@H](C)[C@H](NC(=O)[C@@H]1CCCN1C(=O)CNC(=O)[C@H](Cc1ccccc1)NC(=O)[C@H](CC(N)=O)NC(=O)[C@H](CC(N)=O)NC(=O)[C@H](CO)NC(=O)[C@H](CO)NC(=O)[C@H](Cc1c[nH]cn1)NC(=O)[C@H](Cc1c[nH]cn1)NC(=O)[C@H](CC(C)C)NC(=O)[C@H](Cc1ccccc1)NC(=O)[C@H](CCC(=O)O)NC(=O)[C@H](C)NC(=O)[C@H](CC(C)C)NC(=O)[C@H](CCCNC(=N)N)NC(=O)[C@H](CCC(N)=O)NC(=O)[C@@H](NC(=O)[C@H](C)NC(=O)[C@@H]1CSSC[C@H](NC(=O)CC[C@H](NC(=O)CCCCCCCCCCCCCCCCCCC(=O)O)C(=O)O)C(=O)N[C@@H](CC(N)=O)C(=O)N[C@@H]([C@@H](C)O)C(=O)N[C@@H](C)C(=O)N[C@@H]([C@@H](C)O)C(=O)N1)[C@@H](C)O)C(=O)N[C@@H](CC(C)C)C(=O)N1CCC[C@H]1C(=O)N1CCC[C@H]1C(=O)N[C@H](C(=O)N[C@@H](CC(N)=O)C(=O)N[C@H](C(=O)NCC(=O)N[C@@H](CO)C(=O)N[C@@H](Cc1c[nH]cn1)C(=O)N[C@H](C(=O)N[C@@H](Cc1ccc(O)cc1)C(N)=O)[C@@H](C)O)C(C)C)[C@@H](C)O [Example 75, N-alpha-[(S)-4-Carboxy-4-(19-carboxynonadecanoylamino)butyryl]-[des1,Glu14,His17,His35]-pramlintide] ({C20 diacid-γGlu}-CNTATCATQRLAEFLHHSSNNFGPILPPTNVGSHTY-NH2; disulfide 1-6 (inferred))
185 (≈ 834 µg/mL) | 23 (≈ 104 µg/mL) |  |  | 5 (≈ 22.5 µg/mL) | 33 (≈ 149 µg/mL) | 94 (≈ 424 µg/mL) | > 200 | > 200 | > 200 | > 200 | 0.11 | 0.066 |  | >45 | >45 | CC[C@H](C)[C@H](NC(=O)[C@@H]1CCCN1C(=O)CNC(=O)[C@H](Cc1ccccc1)NC(=O)[C@H](CC(N)=O)NC(=O)[C@H](CC(N)=O)NC(=O)[C@H](CO)NC(=O)[C@H](CO)NC(=O)[C@H](CCCNC(=N)N)NC(=O)[C@H](Cc1c[nH]cn1)NC(=O)[C@H](CC(C)C)NC(=O)[C@H](Cc1ccccc1)NC(=O)[C@H](CCC(=O)O)NC(=O)[C@H](C)NC(=O)[C@H](CC(C)C)NC(=O)[C@H](CCCNC(=N)N)NC(=O)[C@H](CCC(N)=O)NC(=O)[C@@H](NC(=O)[C@H](C)NC(=O)[C@@H]1CSSC[C@H](NC(=O)[C@H](Cc2c[nH]cn2)NC(=O)CC[C@H](NC(=O)CCCCCCCCCCCCCCCCCCC(=O)O)C(=O)O)C(=O)N[C@@H](CC(N)=O)C(=O)N[C@@H]([C@@H](C)O)C(=O)N[C@@H](C)C(=O)N[C@@H]([C@@H](C)O)C(=O)N1)[C@@H](C)O)C(=O)N[C@@H](CC(C)C)C(=O)N1CCC[C@H]1C(=O)N1CCC[C@H]1C(=O)N[C@H](C(=O)N[C@@H](CC(N)=O)C(=O)N[C@H](C(=O)NCC(=O)N[C@@H](CO)C(=O)N[C@@H](Cc1c[nH]cn1)C(=O)N[C@H](C(=O)N[C@@H](Cc1ccc(O)cc1)C(N)=O)[C@@H](C)O)C(C)C)[C@@H](C)O [Example 77, N-alpha-[(S)-4-Carboxy-4-(19-carboxynonadecanoylamino)butyryl]-[His1,Glu14,His17,Arg18,His35]-pramlintide] ({C20 diacid-γGlu}-HCNTATCATQRLAEFLHRSSNNFGPILPPTNVGSHTY-NH2; disulfide 2-7 (inferred); C-terminus assumed)
> 200 | > 200 | 122 (≈ 549 µg/mL) |  | 122 (≈ 549 µg/mL) | 92 (≈ 414 µg/mL) | 79 (≈ 355 µg/mL) | > 200 | > 200 | > 200 | > 200 | 0.0965 | 0.0685 |  | >45 | >45 | CC[C@H](C)[C@H](NC(=O)[C@@H]1CCCN1C(=O)CNC(=O)[C@H](Cc1ccccc1)NC(=O)[C@H](CC(N)=O)NC(=O)[C@H](CC(N)=O)NC(=O)[C@H](CO)NC(=O)[C@H](CO)NC(=O)[C@H](CCCNC(=N)N)NC(=O)[C@H](Cc1c[nH]cn1)NC(=O)[C@H](CC(C)C)NC(=O)[C@H](Cc1ccccc1)NC(=O)[C@H](CCC(=O)O)NC(=O)[C@H](C)NC(=O)[C@H](CC(C)C)NC(=O)[C@H](CCCNC(=N)N)NC(=O)[C@H](CCC(N)=O)NC(=O)[C@@H](NC(=O)[C@H](C)NC(=O)[C@@H]1CSSC[C@H](NC(=O)[C@H](CCCCN)NC(=O)CC[C@H](NC(=O)CCCCCCCCCCCCCCCCCCC(=O)O)C(=O)O)C(=O)N[C@@H](CC(N)=O)C(=O)N[C@@H]([C@@H](C)O)C(=O)N[C@@H](C)C(=O)N[C@@H]([C@@H](C)O)C(=O)N1)[C@@H](C)O)C(=O)N[C@@H](CC(C)C)C(=O)N1CCC[C@H]1C(=O)N1CCC[C@H]1C(=O)N[C@H](C(=O)N[C@@H](CC(N)=O)C(=O)N[C@H](C(=O)NCC(=O)N[C@@H](CO)C(=O)N[C@@H](Cc1c[nH]cn1)C(=O)N[C@H](C(=O)N[C@@H](Cc1ccc(O)cc1)C(N)=O)[C@@H](C)O)C(C)C)[C@@H](C)O [Example 78, N-alpha-[(S)-4-Carboxy-4-(19-carboxynonadecanoylamino)butyryl]-[Glu14,His17,Arg18,His35]-pramlintide] ({C20 diacid-γGlu}-KCNTATCATQRLAEFLHRSSNNFGPILPPTNVGSHTY-NH2; disulfide 2-7 (inferred); C-terminus assumed)
> 200 | > 200 | > 200 |  | > 200 | > 200 | > 200 | > 200 | > 200 | > 200 | > 200 | 0.077 | 0.0565 |  |  | 16 | CC[C@H](C)[C@H](NC(=O)[C@@H]1CCCN1C(=O)CNC(=O)[C@H](Cc1ccccc1)NC(=O)[C@H](CC(N)=O)NC(=O)[C@H](CC(N)=O)NC(=O)[C@H](CO)NC(=O)[C@H](CO)NC(=O)[C@H](CCCNC(=N)N)NC(=O)[C@H](Cc1c[nH]cn1)NC(=O)[C@H](CC(C)C)NC(=O)[C@H](Cc1ccccc1)NC(=O)[C@H](CCC(=O)O)NC(=O)[C@H](C)NC(=O)[C@H](CC(C)C)NC(=O)[C@H](CCCNC(=N)N)NC(=O)[C@H](CCC(N)=O)NC(=O)[C@@H](NC(=O)[C@H](C)NC(=O)[C@@H]1CSSC[C@H](NC(=O)[C@H](CCCCN)NC(=O)CC[C@H](NC(=O)CCCCCCCCCCCCCCCCCCC(=O)O)C(=O)O)C(=O)N[C@@H](CC(N)=O)C(=O)N[C@@H]([C@@H](C)O)C(=O)N[C@@H](C)C(=O)N[C@@H]([C@@H](C)O)C(=O)N1)[C@@H](C)O)C(=O)N[C@@H](CC(C)C)C(=O)N1CCC[C@H]1C(=O)N1CCC[C@H]1C(=O)N[C@H](C(=O)N[C@@H](CC(N)=O)C(=O)N[C@H](C(=O)NCC(=O)N[C@@H](CO)C(=O)N[C@@H](CC(N)=O)C(=O)N[C@H](C(=O)N[C@@H](Cc1ccc(O)cc1)C(N)=O)[C@@H](C)O)C(C)C)[C@@H](C)O [Example 79, N-alpha-[(S)-4-Carboxy-4-(19-carboxynonadecanoylamino)butyryl]-[Glu14,His17,Arg18]-pramlintide] ({C20 diacid-γGlu}-KCNTATCATQRLAEFLHRSSNNFGPILPPTNVGSNTY-NH2; disulfide 2-7 (inferred))
